Source: PubChem BioAssay AID1963961 (Molecular Pharmacology Branch, DTP, NCI, 2024)
One block for each molecule: values may come before it.

Test system: K98450-129-R-PDC multicell spheroids, viability
Experiment: Anticancer human tumor K98450-129-R-PDC patient-derived colon adenocarcinoma cell line growth inhibition [PI3K]
Conditions: for IC50: curve of first compound; for viability, T/C: stronger effect = lower value
How it was run: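 Three cell types, namely tumor cells, endothelial cells and mesenchymal stem cells, formed each spheroid. Combinations with four PI3K inhibitors were screened at clinically achievable concentrations decreasing by half-log, and spheroid viability was recorded.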

[1] = second compound 0.00316 µM, first compound 0.0316 µM
[2] = second compound 0.00316 µM, first compound 0.1 µM
[3] = second compound 0.00316 µM, first compound 0.316 µM
[4] = second compound 0.00316 µM, first compound 1 µM
[5] = second compound 0.00316 µM, first compound 3.16 µM
[6] = second compound 0.00316 µM, first compound 10 µM
[7] = second compound 0.01 µM, first compound 0.0316 µM
[8] = second compound 0.01 µM, first compound 0.1 µM
[9] = second compound 0.01 µM, first compound 0.316 µM
[10] = second compound 0.01 µM, first compound 1 µM
[11] = second compound 0.01 µM, first compound 3.16 µM
[12] = second compound 0.01 µM, first compound 10 µM
[13] = second compound 0.0316 µM, first compound 0.0316 µM
[14] = second compound 0.0316 µM, first compound 0.1 µM
[15] = second compound 0.0316 µM, first compound 0.316 µM
[16] = second compound 0.0316 µM, first compound 1 µM
[17] = second compound 0.0316 µM, first compound 3.16 µM
[18] = second compound 0.0316 µM, first compound 10 µM
[19] = second compound 0.1 µM, first compound 0.0316 µM
[20] = second compound 0.1 µM, first compound 0.1 µM
[21] = second compound 0.1 µM, first compound 0.316 µM
[22] = second compound 0.1 µM, first compound 1 µM
[23] = second compound 0.1 µM, first compound 3.16 µM
[24] = second compound 0.1 µM, first compound 10 µM
[25] = second compound 0.316 µM, first compound 0.0316 µM
[26] = second compound 0.316 µM, first compound 0.1 µM
[27] = second compound 0.316 µM, first compound 0.316 µM
[28] = second compound 0.316 µM, first compound 1 µM
[29] = second compound 0.316 µM, first compound 3.16 µM
[30] = second compound 0.316 µM, first compound 10 µM
[31] = second compound 1 µM, first compound 0.0316 µM
[32] = second compound 1 µM, first compound 0.1 µM
[33] = second compound 1 µM, first compound 0.316 µM
[34] = second compound 1 µM, first compound 1 µM
[35] = second compound 1 µM, first compound 3.16 µM
[36] = second compound 1 µM, first compound 10 µM
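Further: spheroids exposed to agents for seven days before read-out.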

IC50 (second compound 0.00316 µM): 2760 nM
IC50 (second compound 0.01 µM): 5000 nM
IC50 (second compound 0.0316 µM): 2950 nM
IC50 (second compound 0.1 µM): 692 nM
IC50 (second compound 0.316 µM): 554 nM
IC50 (second compound 1 µM): 166 nM
SMILES: C=CC(=O)N1CCN(c2nc(=O)n(-c3c(C)ccnc3C(C)C)c3nc(-c4c(O)cccc4F)c(F)cc23)C(C)C1 (centres undefined) + COc1c(OCCCN2CCOCC2)ccc2c3n(c(=NC(=O)c4cnc(N)nc4)nc12)CCN3
viability, T/C [1]: 98.1%
viability, T/C [2]: 95.5%
viability, T/C [3]: 97.4%
viability, T/C [4]: 82.1%
viability, T/C [5]: 45.7%
viability, T/C [6]: 44.7%
viability, T/C [7]: 103%
viability, T/C [8]: 82.8%
viability, T/C [9]: 89.3%
viability, T/C [10]: 63%
viability, T/C [11]: 57.1%
viability, T/C [12]: 41.4%
viability, T/C [13]: 116%
viability, T/C [14]: 99.6%
viability, T/C [15]: 73.8%
viability, T/C [16]: 76.2%
viability, T/C [17]: 48.6%
viability, T/C [18]: 29.4%
viability, T/C [19]: 71.9%
viability, T/C [20]: 91.2%
viability, T/C [21]: 61.1%
viability, T/C [22]: 44.9%
viability, T/C [23]: 41.9%
viability, T/C [24]: 28.3%
viability, T/C [25]: 67.7%
viability, T/C [26]: 59.5%
viability, T/C [27]: 66%
viability, T/C [28]: 34.8%
viability, T/C [29]: 19.5%
viability, T/C [30]: 16.3%
viability, T/C [31]: 50.8%
viability, T/C [32]: 61.1%
viability, T/C [33]: 42.2%
viability, T/C [34]: 22.6%
viability, T/C [35]: 15.1%
viability, T/C [36]: 14.2%

IC50 (second compound 0.00316 µM): > 10000 nM
IC50 (second compound 0.01 µM): > 10000 nM
IC50 (second compound 0.0316 µM): > 10000 nM
IC50 (second compound 0.1 µM): > 10000 nM
IC50 (second compound 0.316 µM): > 10000 nM
IC50 (second compound 1 µM): > 10000 nM
SMILES: CC(C)NCC(C(=O)N1CCN(c2ncnc3c2C(C)CC3O)CC1)c1ccc(Cl)cc1 (centres undefined) + COc1c(OCCCN2CCOCC2)ccc2c3n(c(=NC(=O)c4cnc(N)nc4)nc12)CCN3
viability, T/C [1]: 107%
viability, T/C [2]: 95.9%
viability, T/C [3]: 115%
viability, T/C [4]: 99%
viability, T/C [5]: 97.4%
viability, T/C [6]: 89.8%
viability, T/C [7]: 111%
viability, T/C [8]: 106%
viability, T/C [9]: 99.3%
viability, T/C [10]: 98.8%
viability, T/C [11]: 90.6%
viability, T/C [12]: 93.3%
viability, T/C [13]: 94%
viability, T/C [14]: 114%
viability, T/C [15]: 88.4%
viability, T/C [16]: 95.1%
viability, T/C [17]: 89.8%
viability, T/C [18]: 86.2%
viability, T/C [19]: 79%
viability, T/C [20]: 66.4%
viability, T/C [21]: 67%
viability, T/C [22]: 73.7%
viability, T/C [23]: 95.4%
viability, T/C [24]: 82.9%
viability, T/C [25]: 69.5%
viability, T/C [26]: 73.8%
viability, T/C [27]: 58.7%
viability, T/C [28]: 65.2%
viability, T/C [29]: 68.9%
viability, T/C [30]: 66.3%
viability, T/C [31]: 54.1%
viability, T/C [32]: 49.3%
viability, T/C [33]: 55.6%
viability, T/C [34]: 45.2%
viability, T/C [35]: 59.7%
viability, T/C [36]: 47.5%
